Where a name gives a salt, the structure may show the parent alone. Each block holds one molecule with its values, some of them ahead of it.
Experiments:
[1] = solubility in water of hydrochloride salt crystal forms; assay type: physicochemical
[2] = hygroscopicity / Dynamic Vapor Sorption (DVS) of hydrochloride salt crystal forms; assay type: physicochemical; details: for water absorbed eventually: 90% RH; for hygroscopicity / hygroscopicity (Crystal Form Table): hydrochloride salt crystal forms
Experimental: Dynamic Vapor Sorption (DVS) was done at 26° C.

[3] = biological target: T1, alpha7 nicotinic acetylcholine receptor (Rattus norvegicus, UniProt Q05941); assay: functional FLIPR assay, alpha7 nAChR stably expressed in GH4C1 cells; assay type: cell-based; details: agonist, concentration range 0.001 to 30 microM
T1 construct: expressed in transfected cells
T1 sequence (Q05941 23-502): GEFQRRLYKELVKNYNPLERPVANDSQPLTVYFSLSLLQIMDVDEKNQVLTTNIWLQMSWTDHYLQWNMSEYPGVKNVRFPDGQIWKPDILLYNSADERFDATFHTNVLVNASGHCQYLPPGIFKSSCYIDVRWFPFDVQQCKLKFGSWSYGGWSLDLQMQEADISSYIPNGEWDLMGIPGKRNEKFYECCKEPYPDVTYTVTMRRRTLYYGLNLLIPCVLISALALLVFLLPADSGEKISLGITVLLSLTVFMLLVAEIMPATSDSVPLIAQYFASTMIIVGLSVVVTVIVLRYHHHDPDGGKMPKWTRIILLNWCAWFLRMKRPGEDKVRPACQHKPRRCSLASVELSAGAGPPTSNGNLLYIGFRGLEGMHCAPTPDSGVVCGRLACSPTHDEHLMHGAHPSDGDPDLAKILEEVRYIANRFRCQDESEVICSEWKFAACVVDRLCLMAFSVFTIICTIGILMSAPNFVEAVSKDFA

SMILES: COc1ccc(-c2cc(NC(=O)CCCCN3CCCN(C(C)=O)CC3)n[nH]2)cc1.Cl [Form I, 5-(4-acetyl-1,4-diazepan-1-yl)-N-(5-(4-methoxyphenyl)-1H-pyrazol-3-yl)pentanamide hydrochloric salt Form I]
solubility in water [1]: considerably soluble in water | water absorbed eventually ([2]; DVS at 26° C.): up to 2% | relative humidity at which the form picks up moisture ([2]; DVS at 26° C.): about 50% | moisture gain ([2]; at 70-100% RH, lost without significant hysteresis on decreasing RH): at least 12% | moisture gain ([2]; equilibrated at RH less than or equal to 70%): about 0.5% | hygroscopicity [2]: relatively non-hygroscopic

SMILES: COc1ccc(-c2cc(NC(=O)CCCCN3CCCN(C(C)=O)CC3)[nH]n2)cc1 [Crystal Form III, 5-(4-Acetyl-[1,4]diazepan-1-yl)-pentanoic acid [5-(4-methoxy-phenyl)-2H-pyrazol-3-yl]-amide]
hygroscopicity (Crystal Form Table) [2]: Hygroscopic

SMILES: COc1ccc(-c2cc(NC(=O)CCCCN3CCCN(C(C)=O)CC3)n[nH]2)cc1.Cl [mono-HCl salt, 5-(4-Acetyl-[1,4]diazepan-1-yl)-pentanoic acid [5-(4-methoxy-phenyl)-1H-pyrazol-3-yl]-amide (mono hydrochloride salt)]
form change after DVS test [2]: NO form change

SMILES: C[N+]1(C)CCN(c2ccccc2)CC1 [DMPP]
EC50 [3]: 980 ± 470 nM

SMILES: COc1ccc(-c2cc(NC(=O)CCCCN3CCCN(C(C)=O)CC3)n[nH]2)cc1.Cl [Form II, 5-(4-acetyl-1,4-diazepan-1-yl)-N-(5-(4-methoxyphenyl)-1H-pyrazol-3-yl)pentanamide hydrochloric salt Form II]
solubility in water [1]: considerably soluble in water | water absorbed eventually ([2]; DVS at 26° C.): up to 7% | relative humidity at which the form picks up moisture ([2]; DVS at 26° C.): about 20% | water held at low RH ([2]; RH 0%, DVS at 26° C.): 2% | hygroscopicity [2]: non-hygroscopic

Next, values leading:

melting point: 185 °C
SMILES: COc1ccc(-c2cc(NC(=O)CCCCN3CCCN(C(C)=O)CC3)[nH]n2)cc1 (as salt: hydrochloric acid salt) [5-(4-Acetyl-[1,4]diazepan-1-yl)-pentanoic acid [5-(4-methoxy-phenyl)-2H-pyrazol-3-yl]-amide]

melting point: 132 to 133 °C
SMILES: COc1ccc(-c2cc(NC(=O)CCCCN3CCCN(C(C)=O)CC3)[nH]n2)cc1 (as salt: hydrochloride) [Example 4, 5-(4-Acetyl-[1,4]diazepan-1-yl)-pentanoic acid [5-(4-methoxy-phenyl)-2H-pyrazol-3-yl]-amide]

water uptake ([2]; at RH 50%): (7% at RH | hygroscopicity (Crystal Form Table) [2]: Hygroscopic
SMILES: COc1ccc(-c2cc(NC(=O)CCCCN3CCCN(C(C)=O)CC3)[nH]n2)cc1 [Crystal Form V, 5-(4-Acetyl-[1,4]diazepan-1-yl)-pentanoic acid [5-(4-methoxy-phenyl)-2H-pyrazol-3-yl]-amide]
